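Tested at 5 concentrations; 48 h exposure; 96-well plates; endpoints linearly interpolated, else capped at highest concentration. Definition used: TGI = concentration required for complete inhibition of growth.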
Columns and labels:
Experiment in all cases: NCI tumour cell line growth inhibition, 48 h
786-0 renal = tested on: 786-0 renal
A498 renal = tested on: A498 renal
A549 NSCLC = tested on: A549 NSCLC
ACHN renal = tested on: ACHN renal
BT-549 breast = tested on: BT-549 breast
CAKI-1 renal = tested on: CAKI-1 renal
CCRF-CEM leukemia = tested on: CCRF-CEM leukemia
COLO 205 colon = tested on: COLO 205 colon
DU-145 prostate = tested on: DU-145 prostate
EKVX NSCLC = tested on: EKVX NSCLC
HCC-2998 colon = tested on: HCC-2998 colon
HCT-116 colon = tested on: HCT-116 colon
HCT-15 colon = tested on: HCT-15 colon
HOP-62 NSCLC = tested on: HOP-62 NSCLC
HOP-92 NSCLC = tested on: HOP-92 NSCLC
HS 578T breast = tested on: HS 578T breast
HT29 colon = tested on: HT29 colon
IGROV1 ovarian = tested on: IGROV1 ovarian
K-562 leukemia = tested on: K-562 leukemia
KM12 colon = tested on: KM12 colon
LOX IMVI melanoma = tested on: LOX IMVI melanoma
M14 melanoma = tested on: M14 melanoma
MALME-3M melanoma = tested on: MALME-3M melanoma
MCF7 breast = tested on: MCF7 breast
MDA-MB-231 breast = tested on: MDA-MB-231 breast
MDA-MB-435 = tested on: MDA-MB-435
MDA-N = tested on: MDA-N
MOLT-4 leukemia = tested on: MOLT-4 leukemia
NCI-H226 lung = tested on: NCI-H226 lung
NCI-H23 lung = tested on: NCI-H23 lung
NCI-H460 lung = tested on: NCI-H460 lung
NCI-H522 lung = tested on: NCI-H522 lung
NCI/ADR-RES ovarian = tested on: NCI/ADR-RES ovarian
OVCAR-3 ovarian = tested on: OVCAR-3 ovarian
OVCAR-4 ovarian = tested on: OVCAR-4 ovarian
OVCAR-5 ovarian = tested on: OVCAR-5 ovarian
OVCAR-8 ovarian = tested on: OVCAR-8 ovarian
PC-3 prostate = tested on: PC-3 prostate
RXF 393 renal = tested on: RXF 393 renal
SF-268 CNS = tested on: SF-268 CNS
SF-295 CNS = tested on: SF-295 CNS
SF-539 CNS = tested on: SF-539 CNS
SK-MEL-28 melanoma = tested on: SK-MEL-28 melanoma
SK-MEL-5 melanoma = tested on: SK-MEL-5 melanoma
SK-OV-3 ovarian = tested on: SK-OV-3 ovarian
SN12C renal = tested on: SN12C renal
SNB-19 CNS = tested on: SNB-19 CNS
SNB-75 CNS = tested on: SNB-75 CNS
SR leukemia = tested on: SR leukemia
SW-620 colon = tested on: SW-620 colon
TK-10 renal = tested on: TK-10 renal
U251 CNS = tested on: U251 CNS
UACC-257 melanoma = tested on: UACC-257 melanoma
UACC-62 melanoma = tested on: UACC-62 melanoma
UO-31 renal = tested on: UO-31 renal
HL-60(TB) leukemia = tested on: HL-60(TB) leukemia
RPMI-8226 leukemia = tested on: RPMI-8226 leukemia
SK-MEL-2 melanoma = tested on: SK-MEL-2 melanoma

For `S=C1SC(c2ccc(Cl)cc2)(c2ccc(Cl)cc2)c2ccccc21`, the TGI (786-0 renal) was greater than 100 µM, the TGI (A498 renal) was greater than 100 µM and the TGI (A549 NSCLC) was greater than 100 µM. For the same molecule, the TGI (ACHN renal) was greater than 100 µM, the TGI (BT-549 breast) was greater than 100 µM and the TGI (CAKI-1 renal) was greater than 100 µM. It also gave a TGI (CCRF-CEM leukemia) greater than 100 µM, a TGI (COLO 205 colon) greater than 100 µM and a TGI (DU-145 prostate) greater than 100 µM. For the same molecule, the TGI (EKVX NSCLC) was greater than 100 µM, the TGI (HCC-2998 colon) was greater than 100 µM and the TGI (HCT-116 colon) was greater than 100 µM. The TGI (HCT-15 colon) was greater than 100 µM, the TGI (HOP-62 NSCLC) was greater than 100 µM and the TGI (HOP-92 NSCLC) was greater than 100 µM. It also gave a TGI (HS 578T breast) greater than 100 µM, a TGI (HT29 colon) greater than 100 µM and a TGI (IGROV1 ovarian) greater than 100 µM. For the same molecule, the TGI (K-562 leukemia) was greater than 100 µM, the TGI (KM12 colon) was greater than 100 µM and the TGI (LOX IMVI melanoma) was greater than 100 µM. It also gave a TGI (M14 melanoma) greater than 100 µM, a TGI (MALME-3M melanoma) greater than 100 µM and a TGI (MCF7 breast) greater than 100 µM. For the same molecule, the TGI (MDA-MB-231 breast) was greater than 100 µM, the TGI (MDA-MB-435) was greater than 100 µM and the TGI (MDA-N) was greater than 100 µM. For the same molecule, the TGI (MOLT-4 leukemia) was greater than 100 µM, the TGI (NCI-H226 lung) was greater than 100 µM and the TGI (NCI-H23 lung) was greater than 100 µM. It also gave a TGI (NCI-H460 lung) greater than 100 µM, a TGI (NCI-H522 lung) greater than 100 µM and a TGI (NCI/ADR-RES ovarian) greater than 100 µM. The TGI (OVCAR-3 ovarian) was greater than 100 µM, the TGI (OVCAR-4 ovarian) was greater than 100 µM and the TGI (OVCAR-5 ovarian) was greater than 100 µM. The TGI (OVCAR-8 ovarian) was greater than 100 µM, the TGI (PC-3 prostate) was greater than 100 µM and the TGI (RXF 393 renal) was greater than 100 µM. It also gave a TGI (SF-268 CNS) greater than 100 µM, a TGI (SF-295 CNS) greater than 100 µM and a TGI (SF-539 CNS) greater than 100 µM. For the same molecule, the TGI (SK-MEL-28 melanoma) was greater than 100 µM, the TGI (SK-MEL-5 melanoma) was greater than 100 µM and the TGI (SK-OV-3 ovarian) was greater than 100 µM. The TGI (SN12C renal) was greater than 100 µM, the TGI (SNB-19 CNS) was greater than 100 µM and the TGI (SNB-75 CNS) was greater than 100 µM. It also gave a TGI (SR leukemia) of 89.9 µM, a TGI (SW-620 colon) greater than 100 µM and a TGI (TK-10 renal) greater than 100 µM. For the same molecule, the TGI (U251 CNS) was greater than 100 µM, the TGI (UACC-257 melanoma) was greater than 100 µM and the TGI (UACC-62 melanoma) was greater than 100 µM. The TGI (UO-31 renal) was greater than 100 µM.

`CCN(CC)c1nc(N(C)C)c2cc(OC)ccc2n1` was tested, and the TGI (786-0 renal) was 86.2 µM, the TGI (A498 renal) was greater than 100 µM and the TGI (A549 NSCLC) was greater than 100 µM. For the same molecule, the TGI (ACHN renal) was greater than 100 µM, the TGI (BT-549 breast) was greater than 100 µM and the TGI (CAKI-1 renal) was greater than 100 µM. The TGI (COLO 205 colon) was 28.2 µM, the TGI (DU-145 prostate) was greater than 100 µM and the TGI (EKVX NSCLC) was greater than 100 µM. The TGI (HCC-2998 colon) was 46.4 µM, the TGI (HCT-116 colon) was greater than 100 µM and the TGI (HCT-15 colon) was greater than 100 µM. For the same molecule, the TGI (HL-60(TB) leukemia) was 67 µM, the TGI (HOP-62 NSCLC) was greater than 100 µM and the TGI (HOP-92 NSCLC) was greater than 100 µM. It also gave a TGI (HS 578T breast) greater than 100 µM, a TGI (HT29 colon) greater than 100 µM and a TGI (IGROV1 ovarian) greater than 100 µM. For the same molecule, the TGI (K-562 leukemia) was greater than 100 µM, the TGI (KM12 colon) was greater than 100 µM and the TGI (LOX IMVI melanoma) was greater than 100 µM. The TGI (M14 melanoma) was greater than 100 µM, the TGI (MALME-3M melanoma) was 62 µM and the TGI (MCF7 breast) was greater than 100 µM. The TGI (MDA-MB-231 breast) was greater than 100 µM, the TGI (MDA-MB-435) was greater than 100 µM and the TGI (MDA-N) was greater than 100 µM. For the same molecule, the TGI (MOLT-4 leukemia) was 65.1 µM, the TGI (NCI-H226 lung) was 60.1 µM and the TGI (NCI-H23 lung) was greater than 100 µM. The TGI (NCI-H460 lung) was greater than 100 µM, the TGI (NCI-H522 lung) was 66.9 µM and the TGI (NCI/ADR-RES ovarian) was greater than 100 µM. For the same molecule, the TGI (OVCAR-3 ovarian) was greater than 100 µM, the TGI (OVCAR-4 ovarian) was greater than 100 µM and the TGI (OVCAR-5 ovarian) was greater than 100 µM. The TGI (OVCAR-8 ovarian) was greater than 100 µM, the TGI (PC-3 prostate) was greater than 100 µM and the TGI (RPMI-8226 leukemia) was 61.2 µM. It also gave a TGI (RXF 393 renal) greater than 100 µM, a TGI (SF-268 CNS) of 91.8 µM and a TGI (SF-295 CNS) greater than 100 µM. It also gave a TGI (SF-539 CNS) of 55.5 µM, a TGI (SK-MEL-2 melanoma) greater than 100 µM and a TGI (SK-MEL-28 melanoma) greater than 100 µM. For the same molecule, the TGI (SK-MEL-5 melanoma) was 34.2 µM, the TGI (SN12C renal) was 89.3 µM and the TGI (SNB-19 CNS) was greater than 100 µM. For the same molecule, the TGI (SR leukemia) was 76.9 µM, the TGI (SW-620 colon) was greater than 100 µM and the TGI (TK-10 renal) was greater than 100 µM. It also gave a TGI (U251 CNS) greater than 100 µM, a TGI (UACC-257 melanoma) of 81.3 µM and a TGI (UACC-62 melanoma) greater than 100 µM. It also gave a TGI (UO-31 renal) greater than 100 µM.
